Publication PMC12846068, “Insights into Transport Function of the Murine Organic Anion-Transporting Polypeptide OATP1B2 by Comparison with Its Rat and Human Orthologues” (Toxics, 2025)

Tests used:
rOATP1B2 = molecular target: T1, rOATP1B2 (Rattus norvegicus, UniProt Q9QZX8); experiment: rOATP1B2-mediated uptake of [3H]-E1S and [3H]-TCA in overexpressing HEK293 cells; assay type: cell-based; conditions: rOATP1B2, 1 µM substrate; E1S 5 min, TCA 10 min
T1 construct: The full-length mOATP1B2 and rOATP1B2 consist of 689 and 678 amino acids
T1 sequence (Q9QZX8 1-687): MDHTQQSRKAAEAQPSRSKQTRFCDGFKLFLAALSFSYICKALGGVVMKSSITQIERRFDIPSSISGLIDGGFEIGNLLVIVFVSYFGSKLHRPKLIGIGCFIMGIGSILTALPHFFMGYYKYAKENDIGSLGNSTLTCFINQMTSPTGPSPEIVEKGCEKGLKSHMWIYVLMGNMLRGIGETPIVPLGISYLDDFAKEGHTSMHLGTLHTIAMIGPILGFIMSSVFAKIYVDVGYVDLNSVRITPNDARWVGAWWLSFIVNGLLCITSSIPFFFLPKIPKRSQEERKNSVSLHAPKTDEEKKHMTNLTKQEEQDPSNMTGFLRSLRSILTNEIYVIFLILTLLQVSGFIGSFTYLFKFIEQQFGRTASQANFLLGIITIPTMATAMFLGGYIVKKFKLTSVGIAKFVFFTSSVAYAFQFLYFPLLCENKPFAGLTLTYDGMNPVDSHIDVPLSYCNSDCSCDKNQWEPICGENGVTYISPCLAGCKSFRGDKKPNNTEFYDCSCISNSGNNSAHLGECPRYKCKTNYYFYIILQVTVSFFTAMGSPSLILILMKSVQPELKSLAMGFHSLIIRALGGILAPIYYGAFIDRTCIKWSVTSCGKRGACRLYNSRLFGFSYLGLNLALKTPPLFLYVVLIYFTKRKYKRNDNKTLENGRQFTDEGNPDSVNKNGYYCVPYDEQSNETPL
Experimental: (§1) To perform transporter-mediated uptake, both stably transfected cells and control cells (seeding density 2 × 10^5) were cultured for three days in 24-well plates (coated with 0.1 mg/mL poly-D-lysine hydrobromide). Then, 24 h before the start of the transport experiment, the gene expression of mOapt1b2 and rOATP1B2 was induced by 1 µg/mL tetracycline. At the beginning of each experiment, the cells were washed three times with pre-warmed 0.5 mL HBSS incubation buffer (supplemented with 20 mM HEPES, pH 7.4) and equilibrated for at least 20 min as described previously [27]. After aspirating the incubation buffer, the uptake process was started by adding 200 µL HBSS incubation buffer containing radio-labeled and unlabeled substances to each well and incubated at 37 °C for an appropriate time. The uptake was stopped by aspirating the reaction mixture and washing the cells 3 times with 0.4 mL ice-cold PBS buffer. After cell lysis with 0.6 mL of 1N NaOH overnight, the whole content of each well (0.6 mL) was transferred to a 6 mL scintillation vial (Sarstedt) containing 2.5 mL scintillation liquid (Rotiszint®eco plus, Carl Roth). The ^3H content was measured in a scintillation counter (Perkin Elmer TRICarb 2810 or HIDEX 600SL). […]
(§2) The absolute amount (pmol) of the radio-labeled probe substrate uptake was calculated and related to the determined protein values as well as the incubation time. […]

hOATP1B3 = molecular target: T2, hOATP1B3 (Homo sapiens, UniProt Q9NPD5); experiment: hOATP1B3-mediated uptake of [3H]-E1S and [3H]-TCA in transfected HEK293 cells
T2 sequence (Q9NPD5 1-702): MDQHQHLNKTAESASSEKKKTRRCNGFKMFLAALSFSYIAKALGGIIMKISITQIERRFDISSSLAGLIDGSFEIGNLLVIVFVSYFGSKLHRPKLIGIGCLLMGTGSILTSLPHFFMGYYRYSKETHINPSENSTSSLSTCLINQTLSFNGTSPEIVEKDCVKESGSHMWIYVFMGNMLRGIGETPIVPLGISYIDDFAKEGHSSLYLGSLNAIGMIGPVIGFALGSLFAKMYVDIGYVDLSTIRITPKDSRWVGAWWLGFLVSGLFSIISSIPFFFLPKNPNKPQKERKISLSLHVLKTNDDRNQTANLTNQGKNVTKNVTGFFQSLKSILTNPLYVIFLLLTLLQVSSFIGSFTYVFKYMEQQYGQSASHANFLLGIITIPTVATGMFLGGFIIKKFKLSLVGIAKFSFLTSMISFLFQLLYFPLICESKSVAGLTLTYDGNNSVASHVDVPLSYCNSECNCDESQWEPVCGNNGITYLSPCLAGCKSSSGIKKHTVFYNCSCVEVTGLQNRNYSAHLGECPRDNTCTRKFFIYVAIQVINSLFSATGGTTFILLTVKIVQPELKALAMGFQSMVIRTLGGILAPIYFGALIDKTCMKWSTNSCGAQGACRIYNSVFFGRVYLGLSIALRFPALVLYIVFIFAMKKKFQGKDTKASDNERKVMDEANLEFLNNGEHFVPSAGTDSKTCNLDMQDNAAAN
Experimental: To perform transporter-mediated uptake, both stably transfected cells and control cells (seeding density 2 × 10^5) were cultured for three days in 24-well plates (coated with 0.1 mg/mL poly-D-lysine hydrobromide). Then, 24 h before the start of the transport experiment, the gene expression of mOapt1b2 and rOATP1B2 was induced by 1 µg/mL tetracycline. At the beginning of each experiment, the cells were washed three times with pre-warmed 0.5 mL HBSS incubation buffer (supplemented with 20 mM HEPES, pH 7.4) and equilibrated for at least 20 min as described previously [27]. After aspirating the incubation buffer, the uptake process was started by adding 200 µL HBSS incubation buffer containing radio-labeled and unlabeled substances to each well and incubated at 37 °C for an appropriate time. The uptake was stopped by aspirating the reaction mixture and washing the cells 3 times with 0.4 mL ice-cold PBS buffer. After cell lysis with 0.6 mL of 1N NaOH overnight, the whole content of each well (0.6 mL) was transferred to a 6 mL scintillation vial (Sarstedt) containing 2.5 mL scintillation liquid (Rotiszint®eco plus, Carl Roth). The ^3H content was measured in a scintillation counter (Perkin Elmer TRICarb 2810 or HIDEX 600SL).
To verify the results for the human transporters, both substrates were tested at a concentration of 0.01 µM. All experiments were conducted at least on two separate days as triplicates.
The absolute amount (pmol) of the radio-labeled probe substrate uptake was calculated and related to the determined protein values as well as the incubation time. The transporter-mediated uptake rate (net uptake) was obtained by subtracting the uptake rate in control (vector only)-transfected HEK293 cells from the uptake rate in transporter-transfected cells. To calculate the Km of the respective substrate, the transporter-mediated net uptake (pmol/mg protein/min) was plotted against the substrate concentrations in SigmaPlot 13. Weighted nonlinear regression was used for curve fitting (ligand binding with one site saturation).

mOATP1B2 = molecular target: T3, mOATP1B2 (Mus musculus, UniProt Q9JJL3); experiment: mOATP1B2-mediated uptake of [3H]-E1S and [3H]-TCA in overexpressing HEK293 cells; assay type: cell-based
T3 construct: The full-length mOATP1B2 and rOATP1B2 consist of 689 and 678 amino acids
T3 sequence (Q9JJL3 1-689): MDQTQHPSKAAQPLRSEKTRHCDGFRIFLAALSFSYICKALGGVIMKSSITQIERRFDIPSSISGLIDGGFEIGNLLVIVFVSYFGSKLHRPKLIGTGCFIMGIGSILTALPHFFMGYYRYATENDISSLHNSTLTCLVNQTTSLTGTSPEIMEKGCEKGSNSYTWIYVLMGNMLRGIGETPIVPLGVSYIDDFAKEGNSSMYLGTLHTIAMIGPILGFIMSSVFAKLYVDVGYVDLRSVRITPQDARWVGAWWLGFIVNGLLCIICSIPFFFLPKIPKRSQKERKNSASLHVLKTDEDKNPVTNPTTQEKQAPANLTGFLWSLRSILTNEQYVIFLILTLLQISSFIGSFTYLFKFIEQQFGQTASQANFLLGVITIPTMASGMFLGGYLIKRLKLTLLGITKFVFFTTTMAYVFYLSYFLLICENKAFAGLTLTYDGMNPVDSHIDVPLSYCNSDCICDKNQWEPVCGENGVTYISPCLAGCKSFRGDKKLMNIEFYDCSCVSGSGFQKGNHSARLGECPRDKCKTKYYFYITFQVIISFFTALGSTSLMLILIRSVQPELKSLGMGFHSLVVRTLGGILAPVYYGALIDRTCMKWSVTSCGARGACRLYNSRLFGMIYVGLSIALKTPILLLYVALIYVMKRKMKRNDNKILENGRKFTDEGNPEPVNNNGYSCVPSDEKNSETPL
Experimental: as §1, §2

## C[C@H](CCC(=O)NCCS(=O)(=O)O)[C@H]1CC[C@H]2[C@@H]3[C@H](O)C[C@@H]4C[C@H](O)CC[C@]4(C)[C@H]3C[C@H](O)[C@]12C [TCA, taurocholate]
rOATP1B2
  uptake compared to vector-transfected control cells: > 70 fold
hOATP1B3; hOATP1B3, 0.01 µM substrate
  uptake compared to vector-transfected control cells: 2.7 fold
hOATP1B3; hOATP1B3, substrate concentration not stated at the place
  uptake over control cells / substrate status: 2-3 fold
hOATP1B3; human, pH 7.4
  Km at 10 min: 21 ± 8 µM
mOATP1B2; mOATP1B2, 1 µM substrate, E1S 5 min, TCA 10 min
  uptake compared to vector-transfected control cells: more than 100 fold
mOATP1B2; ratio of Km values mOATP1B2/rOATP1B2
  affinity of mOATP1B2 lower than that of rOATP1B2: 4.6 fold
